Test results: ChEMBL document CHEMBL4196018, “New antitumor anthra[2,3-b]furan-3-carboxamides: Synthesis and structure-activity relationship” (Eur J Med Chem, 2018)
Calls of active or inactive are those of the source. The calls are words filed in the database; no cut-off is given here.

Key:
[1] = system: L1210; assay: Antiproliferative activity against mouse L1210 cells after 48 hrs by MTT assay; assay type: functional, cell-based; conditions: L1210, 48 h
[2] = system: CCRF-CEM; assay: Antiproliferative activity against human CEM cells after 72 hrs by MTT assay; assay type: functional, cell-based
[3] = system: HeLa; assay: Antiproliferative activity against human HeLa cells after 72 hrs by MTT assay; assay type: functional, cell-based
[4] = system: HCT-116; assay: Antiproliferative activity against human HCT116 cells after 72 hrs by MTT assay; assay type: functional, cell-based; conditions: HCT-116, 72 h
[5] = system: HCT-116; assay: Antiproliferative activity against p53 knockout human HCT116 cells after 72 hrs by MTT assay; assay type: functional, cell-based; conditions: HCT-116, 72 h
[6] = Resistance index, ratio of IC50 for p53 knockout human HCT116 cells to IC50 for human HCT116 cells; assay type: functional
[7] = system: K562; assay: Antiproliferative activity against human K562 cells after 72 hrs by MTT assay; assay type: functional, cell-based; conditions: K562, 72 h
[8] = Antiproliferative activity against human K562/4 cells after 72 hrs by MTT assay; assay type: functional, cell-based; conditions: K562/4, 72 h
[9] = Resistance index, ratio of IC50 for human K562/4 cells to IC50 for human K562 cells; assay type: functional
[10] = system: Lymphocyte; assay: Cytotoxicity against human lymphocytes assessed as reduction in cell viability at 25 uM after 72 hrs by MTT assay; assay type: cell-based
[11] = Substrate activity at P-gp in human K562/4 cells assessed as test compound accumulation at 2 uM after 1 to 24 hrs by flow cytometry; assay type: ADME, cell-based
[12] = Drug uptake in human K562 cells at 2 uM after 1 to 24 hrs by flow cytometry; assay type: ADME, cell-based; conditions: k562, 2 µM
[13] = biological target: T1, DNA topoisomerase 1 (Homo sapiens) (UniProt P11387); assay: Inhibition of human topoisomerase-1 at 10 uM using supercoiled pBR322 DNA as substrate after 30 mins by agarose gel electrophoresis method
T1 sequence (whole entry): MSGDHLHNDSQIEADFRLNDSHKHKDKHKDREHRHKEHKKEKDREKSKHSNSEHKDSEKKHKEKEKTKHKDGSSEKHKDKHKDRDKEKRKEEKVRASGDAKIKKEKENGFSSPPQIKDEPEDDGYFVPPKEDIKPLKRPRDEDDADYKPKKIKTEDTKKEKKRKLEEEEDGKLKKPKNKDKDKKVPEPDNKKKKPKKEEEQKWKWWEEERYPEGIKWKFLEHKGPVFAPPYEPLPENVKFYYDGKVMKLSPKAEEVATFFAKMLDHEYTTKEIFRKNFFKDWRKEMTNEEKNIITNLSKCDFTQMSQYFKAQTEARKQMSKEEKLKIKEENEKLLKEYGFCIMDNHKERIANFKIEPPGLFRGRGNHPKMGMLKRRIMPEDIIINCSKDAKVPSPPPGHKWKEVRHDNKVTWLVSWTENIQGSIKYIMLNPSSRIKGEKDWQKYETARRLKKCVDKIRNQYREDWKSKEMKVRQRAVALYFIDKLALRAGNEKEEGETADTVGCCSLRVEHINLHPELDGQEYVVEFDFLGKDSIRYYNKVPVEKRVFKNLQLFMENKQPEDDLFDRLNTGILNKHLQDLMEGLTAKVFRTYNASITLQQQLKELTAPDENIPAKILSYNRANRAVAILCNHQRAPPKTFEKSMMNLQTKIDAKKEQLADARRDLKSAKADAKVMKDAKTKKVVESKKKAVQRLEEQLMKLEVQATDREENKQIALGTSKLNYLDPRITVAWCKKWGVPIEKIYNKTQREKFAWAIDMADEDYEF

[14] = system: K562; assay: Cell cycle arrest in human K562 cells assessed as accumulation at G2/M phase at 1 uM after 24 hrs by propidium iodide staining based flow cytometry; assay type: functional
[15] = species on record: Homo sapiens; assay: Cell cycle arrest in human K562/4 cells assessed as accumulation at G2/M phase at 1 uM after 24 hrs by propidium iodide staining based flow cytometry; assay type: functional
[16] = system: K562; assay: Cell cycle arrest in human K562 cells assessed as accumulation at sub-G1 phase at 1 uM up to 48 hrs by propidium iodide staining based flow cytometry relative to control; assay type: functional
[17] = Cell cycle arrest in human K562/4 cells assessed as accumulation at sub-G1 phase at 1 uM up to 48 hrs by propidium iodide staining based flow cytometry relative to control; assay type: functional
[18] = system: MKN-45; assay: Induction of ROS generation in human MKN45 cells at 0.1 to 1 uM after 30 mins by H2DCFDA staining based flow cytometry; assay type: functional, cell-based
[19] = system: TMK-1; assay: Induction of ROS generation in human TMK1 cells at 0.1 to 1 uM after 30 mins by H2DCFDA staining based flow cytometry; assay type: functional, cell-based
[20] = system: MKN-45; assay: Induction of apoptosis in human MKN45 cells after 24 hrs by Annexin V-FITC staining based flow cytometry; assay type: functional, cell-based
[21] = system: TMK-1; assay: Induction of apoptosis in human TMK1 cells after 24 hrs by Annexin V-FITC staining based flow cytometry; assay type: functional, cell-based
[22] = system: MKN-45; assay: Induction of apoptosis in human MKN45 cells at 1 uM after 24 hrs by Annexin V-FITC staining based flow cytometry relative to control; assay type: functional
[23] = system: TMK-1; assay: Induction of apoptosis in human TMK1 cells at 1 uM after 24 hrs by Annexin V-FITC staining based flow cytometry relative to control; assay type: functional

IC50 [1]: 0.7 µM | IC50 [2]: 0.9 µM | IC50 [3]: 0.7 µM | IC50 [4]: 0.6 µM | IC50 [5]: 0.8 µM | IC50 [7]: 0.6 µM | Activity [11]: Not Active | Drug uptake [12]: Active | inhibition [13]: Active
Structure (SMILES): O=C1c2ccccc2C(=O)c2c1c(O)c1occ(C(=O)NC3CCCNC3)c1c2O (racemic)
Ratio IC50 [6]: 1.3 | IC50 [8]: 1.2 µM | Ratio IC50 [9]: 2.1 | Activity [10]: Non-Toxic | Activity [14]: Active | Activity [15]: Active | Activity [16]: >70% | Activity [17]: >70% | Activity [18]: Active | Activity [19]: Active | Activity [20]: Dose-dependent effect | Activity [21]: Dose-dependent effect | Activity [22]: 60 - 90% | Activity [23]: 60 - 90%
